Measured values published in ChEMBL document CHEMBL4312011, “Synthesis and biological evaluation of triterpenoid thiazoles derived from betulonic acid, dihydrobetulonic acid, and ursonic acid” (Eur J Med Chem, 2020).

Legend:
A549 = assay: Cytotoxicity against human A549 cells incubated for 72 hrs by MTS assay; assay type: functional, cell-based; settings: A549, 72 h
K562 = assay: Cytotoxicity against human K562 cells incubated for 72 hrs by MTS assay; assay type: functional, cell-based; settings: K562, 72 h
[1] = Cytotoxicity against human CEM-DNR-bulk cells incubated for 72 hrs by MTS assay; assay type: functional, cell-based
U2OS = assay: Cytotoxicity against human U2OS cells incubated for 72 hrs by MTS assay; assay type: functional, cell-based
BJ = assay: Cytotoxicity against human BJ cells incubated for 72 hrs by MTS assay; assay type: cell-based
CCRF-CEM = assay: Cytotoxicity against human CCRF-CEM cells incubated for 72 hrs by MTS assay; assay type: functional, cell-based
MRC5 = assay: Cytotoxicity against human MRC5 cells incubated for 72 hrs by MTS assay; assay type: cell-based; settings: MRC5, 72 h
HCT-116 [2] = assay: Cytotoxicity against human HCT116 cells incubated for 72 hrs by MTS assay; assay type: functional, cell-based; settings: HCT-116, 72 h
HCT-116 [3] = assay: Cytotoxicity against p53 knockout human HCT116 cells incubated for 72 hrs by MTS assay; assay type: functional, cell-based; settings: HCT-116, 72 h
[4] = Cytotoxicity against human K562-TAX cells incubated for 72 hrs by MTS assay; assay type: functional, cell-based

Row | SMILES | IC50 (A549) | IC50 (K562) | IC50 [1] | IC50 (U2OS) | IC50 (BJ) | IC50 (CCRF-CEM) | IC50 (MRC5) | IC50 (HCT-116 [2]) | IC50 (HCT-116 [3]) | IC50 [4]
1 | CC1(C)CC[C@]2(C(=O)O)CC[C@]3(C)C(=CC[C@@H]4[C@@]5(C)CCC(=O)C(C)(C)[C@@H]5CC[C@]43C)[C@@H]2C1 [OLEANONIC ACID] | 49.5 µM | > 50 µM | 17.4 µM | 48.5 µM | > 50 µM | 15.1 µM | > 50 µM | 45.1 µM | > 50 µM | 21.5 µM
2 | C=C(C)[C@@H]1CC[C@]2(C(=O)O)CC[C@]3(C)[C@H](CC[C@@H]4[C@@]5(C)Cc6sc(N7CCOCC7)nc6C(C)(C)[C@@H]5CC[C@]43C)[C@@H]12 | > 50 µM | 11.2 µM | > 50 µM | > 50 µM | > 50 µM | 7.2 µM | > 50 µM | > 50 µM | > 50 µM | > 50 µM
3 | CC(C)[C@@H]1CC[C@]2(C(=O)O)CC[C@]3(C)[C@H](CC[C@@H]4[C@@]5(C)CC(Br)C(=O)C(C)(C)[C@@H]5CC[C@]43C)[C@@H]12 (stereo not given in full) | 15.2 µM | 0.7 µM | 15.6 µM | 10 µM | 21.8 µM | 3.1 µM | 8 µM | 1 µM | 5.2 µM | 5.1 µM
4 | C[C@H]1[C@H](C)CC[C@]2(C(=O)O)CC[C@]3(C)C(=CC[C@@H]4[C@@]5(C)CCC(=O)C(C)(C)[C@@H]5CC[C@]43C)[C@H]12 [URSONIC ACID] | > 50 µM | > 50 µM | 34 µM | > 50 µM | > 50 µM | 10.4 µM | > 50 µM | 49.7 µM | > 50 µM | 35.5 µM
5 | C=C(C)[C@@H]1CC[C@]2(C(=O)O)CC[C@]3(C)[C@H](CC[C@@H]4[C@@]5(C)Cc6sc(NCc7ccccc7)nc6C(C)(C)[C@@H]5CC[C@]43C)[C@@H]12 | > 50 µM | > 50 µM | > 50 µM | 47.5 µM | > 50 µM | 3.7 µM | > 50 µM | > 50 µM | > 50 µM | > 50 µM
6 | C=C(C)[C@@H]1CC[C@]2(C(=O)O)CC[C@]3(C)[C@H](CC[C@@H]4[C@@]5(C)CCC(=O)C(C)(C)[C@@H]5CC[C@]43C)[C@@H]12 [BETUNOLIC ACID] | 40 µM | 13.6 µM | 11.2 µM | 38 µM | 39.5 µM | 8.4 µM | 29.5 µM | 38.1 µM | 49.4 µM | 14.9 µM
7 | C=C(C)[C@@H]1CC[C@]2(C(=O)O)CC[C@]3(C)[C@H](CC[C@@H]4[C@@]5(C)CC(Br)C(=O)C(C)(C)[C@@H]5CC[C@]43C)[C@@H]12 (stereo not given in full) | 24 µM | 35.5 µM | 17.9 µM | 23.4 µM | 33.5 µM | 3 µM | 20.4 µM | 31.1 µM | 32.7 µM | 23.5 µM
8 | C[C@H]1[C@H](C)CC[C@]2(C(=O)O)CC[C@]3(C)C(=CC[C@@H]4[C@@]5(C)Cc6sc(N)nc6C(C)(C)[C@@H]5CC[C@]43C)[C@H]12 | > 50 µM | > 50 µM | 29.5 µM | 49.6 µM | > 50 µM | 19 µM | > 50 µM | 43 µM | > 50 µM | 33.1 µM
9 | C=C(C)[C@@H]1CC[C@]2(C(=O)O)CC[C@]3(C)[C@H](CC[C@@H]4[C@@]5(C)Cc6sc(N7CCCC7)nc6C(C)(C)[C@@H]5CC[C@]43C)[C@@H]12 | > 50 µM | > 50 µM | > 50 µM | > 50 µM | > 50 µM | 7 µM | > 50 µM | > 50 µM | > 50 µM | 22.9 µM
10 | CC(C)[C@@H]1CC[C@]2(C(=O)O)CC[C@]3(C)[C@H](CC[C@@H]4[C@@]5(C)CCC(=O)C(C)(C)[C@@H]5CC[C@]43C)[C@@H]12 [DIHYDROBETULONIC ACID] | 22.2 µM | 11.6 µM | 48.3 µM | 27.5 µM | > 50 µM | 6.2 µM | > 50 µM | 33.5 µM | 36.4 µM | 11.1 µM
11 | CCN(CC)c1nc2c(s1)C[C@]1(C)[C@H]3CC=C4[C@@H]5[C@@H](C)[C@H](C)CC[C@]5(C(=O)O)CC[C@@]4(C)[C@]3(C)CC[C@H]1C2(C)C | > 50 µM | > 50 µM | > 50 µM | > 50 µM | > 50 µM | 26.6 µM | > 50 µM | 41.3 µM | > 50 µM | > 50 µM
12 | C=C(C)[C@@H]1CC[C@]2(C(=O)O)CC[C@]3(C)[C@H](CC[C@@H]4[C@@]5(C)Cc6sc(N(CC)CC)nc6C(C)(C)[C@@H]5CC[C@]43C)[C@@H]12 | > 50 µM | 29.5 µM | > 50 µM | > 50 µM | > 50 µM | 8.5 µM | 23.3 µM | > 50 µM | 31.6 µM | 46.8 µM
13 | CCN(CC)c1nc2c(s1)C[C@]1(C)[C@H]3CC[C@@H]4[C@H]5[C@H](C(C)C)CC[C@]5(C(=O)O)CC[C@@]4(C)[C@]3(C)CC[C@H]1C2(C)C | > 50 µM | 16.3 µM | > 50 µM | 45.8 µM | > 50 µM | 19.7 µM | > 50 µM | > 50 µM | > 50 µM | > 50 µM
14 | C=C(C)[C@@H]1CC[C@]2(C(=O)O)CC[C@]3(C)[C@H](CC[C@@H]4[C@@]5(C)Cc6sc(N7CCCCC7)nc6C(C)(C)[C@@H]5CC[C@]43C)[C@@H]12 | > 50 µM | 35.9 µM | > 50 µM | > 50 µM | > 50 µM | 9.3 µM | 50 µM | > 50 µM | > 50 µM | > 50 µM
15 | C[C@H]1[C@H](C)CC[C@]2(C(=O)O)CC[C@]3(C)C(=CC[C@@H]4[C@@]5(C)Cc6sc(N7CCN(C)CC7)nc6C(C)(C)[C@@H]5CC[C@]43C)[C@H]12 | > 50 µM | > 50 µM | > 50 µM | > 50 µM | > 50 µM | 47.6 µM | > 50 µM | > 50 µM | > 50 µM | > 50 µM
16 | C[C@H]1[C@H](C)CC[C@]2(C(=O)O)CC[C@]3(C)C(=CC[C@@H]4[C@@]5(C)Cc6sc(N7CCCCC7)nc6C(C)(C)[C@@H]5CC[C@]43C)[C@H]12 | > 50 µM | > 50 µM | > 50 µM | > 50 µM | > 50 µM | 22 µM | > 50 µM | > 50 µM | > 50 µM | > 50 µM
17 | C[C@H]1[C@H](C)CC[C@]2(C(=O)O)CC[C@]3(C)C(=CC[C@@H]4[C@@]5(C)Cc6sc(N7CCOCC7)nc6C(C)(C)[C@@H]5CC[C@]43C)[C@H]12 | 28.8 µM | 8.6 µM | 23.8 µM | 29.1 µM | > 50 µM | 8.5 µM | > 50 µM | 23.6 µM | 37.9 µM | 29.7 µM
18 | C[C@H]1[C@H](C)CC[C@]2(C(=O)O)CC[C@]3(C)C(=CC[C@@H]4[C@@]5(C)Cc6sc(N7CCCC7)nc6C(C)(C)[C@@H]5CC[C@]43C)[C@H]12 | > 50 µM | > 50 µM | 39 µM | > 50 µM | > 50 µM | 10.7 µM | > 50 µM | 39 µM | > 50 µM | 37.5 µM
19 | C[C@H]1[C@H](C)CC[C@]2(C(=O)O)CC[C@]3(C)C(=CC[C@@H]4[C@@]5(C)Cc6sc(NC7CCCCC7)nc6C(C)(C)[C@@H]5CC[C@]43C)[C@H]12 | > 50 µM | > 50 µM | > 50 µM | > 50 µM | > 50 µM | 19.4 µM | > 50 µM | > 50 µM | > 50 µM | > 50 µM
